The results in this text go back to US9068343B2, “Construction element” (Termite Solutions Victoria Pty Ltd., priority 2010, dated 2015).

A short description of series [1]: Thermogravimetric study of the stability of bifenthrin (thermal balance). To be noted: thermogravimetric study using a thermal balance; threshold temperature of decomposition. Format: physicochemical. As to the method: In order to determine whether extrusion-based masterbatch preparation was possible without excessive thermal decomposition or volatilization of bifenthrin, a thermogravimetric study was performed using a thermal balance.

A short description of series [2]: Evaporative loss of active during extrusion-based masterbatch preparation. Format: physicochemical. To be noted: 10% bifenthrin melt mixed into EVA-LLDPE-silicate carrier resin, masterbatch pellets. As for the experimental part:
A masterbatch polymeric carrier resin was prepared by melt mixing bifenthrin (10% wt. percentage), low melting EVA polymer and either a high melt index linear low density polyethylene (LLDPE) or low density polyethylene (LDE).
In this way, 10% of the active bifenthrin was incorporated into an EVA-LLDPE-silicate carrier resin and masterbatch pellets produced.

The structures appear in SMILES notation.

`Cc1c(COC(=O)[C@@H]2[C@H](/C=C(\Cl)C(F)(F)F)C2(C)C)cccc1-c1ccccc1` (racemic) [bifenthrin]: the “temperature at which degradation of the active occurs” value in series [1] is “about 180 °C”. The “evaporative losses of the active” value in series [2] was “no measurable evaporative losses”.
